Test system: DMS-114 complex spheroids with HUVEC/MSC, growth % test/control
Test: Anticancer human tumor DMS-114 cell line growth inhibition [AhR];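 further: spheroids exposed to agents for 7 days before readout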;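 on viability, T/C: 100% = DMSO vehicle control wells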
Conditions: for IC50: curve of first compound; for viability, T/C: stronger effect = lower value
Summary of the method: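 Complex tumor spheroids co-cultured with HUVEC and human MSC stroma; AhR antagonists tested in combination with standard-of-care and investigational agents. Top concentration at or near clinical Cmax (else 10 microM), half-log dilutions; growth expressed as percent test/control.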

[1] = second compound 0.1 µM, first compound 0.0316 µM
[2] = second compound 0.1 µM, first compound 0.1 µM
[3] = second compound 0.1 µM, first compound 0.316 µM
[4] = second compound 0.1 µM, first compound 1 µM
[5] = second compound 0.1 µM, first compound 3.16 µM
[6] = second compound 0.1 µM, first compound 10 µM
[7] = second compound 0.316 µM, first compound 0.0316 µM
[8] = second compound 0.316 µM, first compound 0.1 µM
[9] = second compound 0.316 µM, first compound 0.316 µM
[10] = second compound 0.316 µM, first compound 1 µM
[11] = second compound 0.316 µM, first compound 3.16 µM
[12] = second compound 0.316 µM, first compound 10 µM
[13] = second compound 1 µM, first compound 0.0316 µM
[14] = second compound 1 µM, first compound 0.1 µM
[15] = second compound 1 µM, first compound 0.316 µM
[16] = second compound 1 µM, first compound 1 µM
[17] = second compound 1 µM, first compound 3.16 µM
[18] = second compound 1 µM, first compound 10 µM
[19] = second compound 3.16 µM, first compound 0.0316 µM
[20] = second compound 3.16 µM, first compound 0.1 µM
[21] = second compound 3.16 µM, first compound 0.316 µM
[22] = second compound 3.16 µM, first compound 1 µM
[23] = second compound 3.16 µM, first compound 3.16 µM
[24] = second compound 3.16 µM, first compound 10 µM
[25] = second compound 10 µM, first compound 0.0316 µM
[26] = second compound 10 µM, first compound 0.1 µM
[27] = second compound 10 µM, first compound 0.316 µM
[28] = second compound 10 µM, first compound 1 µM
[29] = second compound 10 µM, first compound 3.16 µM
[30] = second compound 10 µM, first compound 10 µM

## NS(=O)(=O)OCC1CC(n2ccc3c(NC4CCc5ccccc54)ncnc32)CC1O (stereo not given) + Cc1ccccc1N=Nc1ccc(NC(=O)c2ccnn2C)c(C)c1
Second compound 0.1 µM
  IC50: 229 nM
Second compound 0.316 µM
  IC50: 203 nM
Second compound 1 µM
  IC50: 201 nM
Second compound 3.16 µM
  IC50: 228 nM
Second compound 10 µM
  IC50: 215 nM
[1]
  viability, T/C: 137%
[2]
  viability, T/C: 84.8%
[3]
  viability, T/C: 37%
[4]
  viability, T/C: 18.4%
[5]
  viability, T/C: 19%
[6]
  viability, T/C: 16.1%
[7]
  viability, T/C: 113%
[8]
  viability, T/C: 73.9%
[9]
  viability, T/C: 34.3%
[10]
  viability, T/C: 22.8%
[11]
  viability, T/C: 17.2%
[12]
  viability, T/C: 16.3%
[13]
  viability, T/C: 119%
[14]
  viability, T/C: 76.7%
[15]
  viability, T/C: 32%
[16]
  viability, T/C: 23.4%
[17]
  viability, T/C: 21.6%
[18]
  viability, T/C: 17.3%
[19]
  viability, T/C: 128%
[20]
  viability, T/C: 80.9%
[21]
  viability, T/C: 37.6%
[22]
  viability, T/C: 24.1%
[23]
  viability, T/C: 19.9%
[24]
  viability, T/C: 21.3%
[25]
  viability, T/C: 86.5%
[26]
  viability, T/C: 77.5%
[27]
  viability, T/C: 35.9%
[28]
  viability, T/C: 25.7%
[29]
  viability, T/C: 22.4%
[30]
  viability, T/C: 20.1%

## CC[C@@]1(O)C(=O)OCc2c1cc1n(c2=O)Cc2cc3c(CN(C)C)c(O)ccc3nc2-1 + CC(CO)NC(=O)c1cc(-c2ccc(Cl)cc2)nn(-c2cnn(C)c2)c1=O
Second compound 0.1 µM
  IC50: 34.6 nM
Second compound 0.316 µM
  IC50: 32.4 nM
Second compound 1 µM
  IC50: 37.2 nM
Second compound 3.16 µM
  IC50: 32.7 nM
Second compound 10 µM
  IC50: 32.8 nM
Second compound 0.1 µM, first compound 0.000316 µM
  viability, T/C: 101%
Second compound 0.1 µM, first compound 0.001 µM
  viability, T/C: 103%
Second compound 0.1 µM, first compound 0.00316 µM
  viability, T/C: 95.7%
Second compound 0.1 µM, first compound 0.01 µM
  viability, T/C: 95.2%
[1]
  viability, T/C: 51.9%
[2]
  viability, T/C: 27.2%
Second compound 0.316 µM, first compound 0.000316 µM
  viability, T/C: 105%
Second compound 0.316 µM, first compound 0.001 µM
  viability, T/C: 99%
Second compound 0.316 µM, first compound 0.00316 µM
  viability, T/C: 83.2%
Second compound 0.316 µM, first compound 0.01 µM
  viability, T/C: 81.3%
[7]
  viability, T/C: 46%
[8]
  viability, T/C: 26.9%
Second compound 1 µM, first compound 0.000316 µM
  viability, T/C: 88.9%
Second compound 1 µM, first compound 0.001 µM
  viability, T/C: 95.2%
Second compound 1 µM, first compound 0.00316 µM
  viability, T/C: 90%
Second compound 1 µM, first compound 0.01 µM
  viability, T/C: 85.5%
[13]
  viability, T/C: 54.6%
[14]
  viability, T/C: 21.9%
Second compound 3.16 µM, first compound 0.000316 µM
  viability, T/C: 104%
Second compound 3.16 µM, first compound 0.001 µM
  viability, T/C: 100%
Second compound 3.16 µM, first compound 0.00316 µM
  viability, T/C: 92.1%
Second compound 3.16 µM, first compound 0.01 µM
  viability, T/C: 74.2%
[19]
  viability, T/C: 51%
[20]
  viability, T/C: 26.4%
Second compound 10 µM, first compound 0.000316 µM
  viability, T/C: 116%
Second compound 10 µM, first compound 0.001 µM
  viability, T/C: 105%
Second compound 10 µM, first compound 0.00316 µM
  viability, T/C: 95.1%
Second compound 10 µM, first compound 0.01 µM
  viability, T/C: 92.7%
[25]
  viability, T/C: 48.1%
[26]
  viability, T/C: 25.4%

## CC1(C)CCC(CN2CCN(c3ccc(C(=O)NS(=O)(=O)c4ccc(NCC5CCOCC5)c([N+](=O)[O-])c4)c(Oc4cnc5[nH]ccc5c4)c3)CC2)=C(c2ccc(Cl)cc2)C1 + CC(CO)NC(=O)c1cc(-c2ccc(Cl)cc2)nn(-c2cnn(C)c2)c1=O
Second compound 0.1 µM
  IC50: > 10000 nM
Second compound 0.316 µM
  IC50: > 10000 nM
Second compound 1 µM
  IC50: > 10000 nM
Second compound 3.16 µM
  IC50: > 10000 nM
Second compound 10 µM
  IC50: > 10000 nM
[1]
  viability, T/C: 99.3%
[2]
  viability, T/C: 101%
[3]
  viability, T/C: 107%
[4]
  viability, T/C: 93.1%
[5]
  viability, T/C: 104%
[6]
  viability, T/C: 67.2%
[7]
  viability, T/C: 95.7%
[8]
  viability, T/C: 114%
[9]
  viability, T/C: 104%
[10]
  viability, T/C: 87.6%
[11]
  viability, T/C: 92.3%
[12]
  viability, T/C: 73.4%
[13]
  viability, T/C: 93.1%
[14]
  viability, T/C: 92.2%
[15]
  viability, T/C: 94%
[16]
  viability, T/C: 119%
[17]
  viability, T/C: 102%
[18]
  viability, T/C: 68.2%
[19]
  viability, T/C: 101%
[20]
  viability, T/C: 101%
[21]
  viability, T/C: 91.3%
[22]
  viability, T/C: 95.8%
[23]
  viability, T/C: 93%
[24]
  viability, T/C: 71.3%
[25]
  viability, T/C: 104%
[26]
  viability, T/C: 93%
[27]
  viability, T/C: 95.6%
[28]
  viability, T/C: 106%
[29]
  viability, T/C: 104%
[30]
  viability, T/C: 64.7%

## CCN(c1cc(-c2ccc(CN3CCOCC3)cc2)cc(C(=O)NCc2c(C)cc(C)[nH]c2=O)c1C)C1CCOCC1 + CC(CO)NC(=O)c1cc(-c2ccc(Cl)cc2)nn(-c2cnn(C)c2)c1=O
Second compound 0.1 µM
  IC50: > 3000 nM
Second compound 0.316 µM
  IC50: > 3000 nM
Second compound 1 µM
  IC50: > 3000 nM
Second compound 3.16 µM
  IC50: > 3000 nM
Second compound 10 µM
  IC50: > 3000 nM
Second compound 0.1 µM, first compound 0.00949 µM
  viability, T/C: 95.4%
Second compound 0.1 µM, first compound 0.03 µM
  viability, T/C: 86.3%
Second compound 0.1 µM, first compound 0.0949 µM
  viability, T/C: 103%
Second compound 0.1 µM, first compound 0.3 µM
  viability, T/C: 100%
Second compound 0.1 µM, first compound 0.949 µM
  viability, T/C: 98%
Second compound 0.1 µM, first compound 3 µM
  viability, T/C: 92.5%
Second compound 0.316 µM, first compound 0.00949 µM
  viability, T/C: 110%
Second compound 0.316 µM, first compound 0.03 µM
  viability, T/C: 107%
Second compound 0.316 µM, first compound 0.0949 µM
  viability, T/C: 104%
Second compound 0.316 µM, first compound 0.3 µM
  viability, T/C: 102%
Second compound 0.316 µM, first compound 0.949 µM
  viability, T/C: 92.8%
Second compound 0.316 µM, first compound 3 µM
  viability, T/C: 93%
Second compound 1 µM, first compound 0.00949 µM
  viability, T/C: 98.3%
Second compound 1 µM, first compound 0.03 µM
  viability, T/C: 106%
Second compound 1 µM, first compound 0.0949 µM
  viability, T/C: 109%
Second compound 1 µM, first compound 0.3 µM
  viability, T/C: 104%
Second compound 1 µM, first compound 0.949 µM
  viability, T/C: 95.7%
Second compound 1 µM, first compound 3 µM
  viability, T/C: 101%
Second compound 3.16 µM, first compound 0.00949 µM
  viability, T/C: 118%
Second compound 3.16 µM, first compound 0.03 µM
  viability, T/C: 96.5%
Second compound 3.16 µM, first compound 0.0949 µM
  viability, T/C: 111%
Second compound 3.16 µM, first compound 0.3 µM
  viability, T/C: 104%
Second compound 3.16 µM, first compound 0.949 µM
  viability, T/C: 93.3%
Second compound 3.16 µM, first compound 3 µM
  viability, T/C: 91%
Second compound 10 µM, first compound 0.00949 µM
  viability, T/C: 117%
Second compound 10 µM, first compound 0.03 µM
  viability, T/C: 98.1%
Second compound 10 µM, first compound 0.0949 µM
  viability, T/C: 117%
Second compound 10 µM, first compound 0.3 µM
  viability, T/C: 100%
Second compound 10 µM, first compound 0.949 µM
  viability, T/C: 92.4%
Second compound 10 µM, first compound 3 µM
  viability, T/C: 86.5%

## Nc1ccccc1NC(=O)c1ccc(CNC(=O)OCc2cccnc2)cc1 + Cc1cncc(-c2nc(NCCc3c[nH]c4ccccc34)c3ncn(C(C)C)c3n2)c1
Second compound 0.1 µM
  IC50: 592 nM
Second compound 0.316 µM
  IC50: 574 nM
Second compound 1 µM
  IC50: 610 nM
Second compound 3.16 µM
  IC50: 348 nM
Second compound 10 µM
  IC50: < 31.6 nM
[1]
  viability, T/C: 97.9%
[2]
  viability, T/C: 87.5%
[3]
  viability, T/C: 63.4%
[4]
  viability, T/C: 39.5%
[5]
  viability, T/C: 16.3%
[6]
  viability, T/C: 9.46%
[7]
  viability, T/C: 89.1%
[8]
  viability, T/C: 82.1%
[9]
  viability, T/C: 61.4%
[10]
  viability, T/C: 39.2%
[11]
  viability, T/C: 17.5%
[12]
  viability, T/C: 8.03%
[13]
  viability, T/C: 85.8%
[14]
  viability, T/C: 88.4%
[15]
  viability, T/C: 64.2%
[16]
  viability, T/C: 38.1%
[17]
  viability, T/C: 16.9%
[18]
  viability, T/C: 8.49%
[19]
  viability, T/C: 89.6%
[20]
  viability, T/C: 68.2%
[21]
  viability, T/C: 57%
[22]
  viability, T/C: 28.2%
[23]
  viability, T/C: 12.7%
[24]
  viability, T/C: 8.11%
[25]
  viability, T/C: 32%
[26]
  viability, T/C: 34.8%
[27]
  viability, T/C: 26.3%
[28]
  viability, T/C: 10.3%
[29]
  viability, T/C: 3.46%
[30]
  viability, T/C: 3.1%

— PubChem BioAssay AID1919008 (Molecular Pharmacology Branch, DTP, NCI, 2023)
